Entries after “also recorded” stand apart in the source; their conditions may differ.
What was measured:
Drosophila smn mutants = test: Rescue of Drosophila smn mutant phenotypes by K+ channel antagonists; details: treatment with K+ channel antagonist; 4-(dimethylamino)pyridine data not shown
[1] = test system: smn^x7/smn^x7 mutant larvae; test: Spontaneous motor rhythm recording, smn mutant larvae; format: in vivo, Drosophila
[2] = test system: Canton S (CS) control larvae; test: Muscle area measurement, control larvae cultured on 4-AP
[3] = test system: smn^x7/smn^x7 mutant larvae; test: NMJ electrophysiology (eEPSP), smn mutant larvae; format: in vivo, Drosophila
Shaker channels = details: at concentration of 1 mM; cited from earlier work
[4] = test system: smn^x7/smn^x7 mutant larvae; test: Larval locomotion assay, smn mutant larvae; format: in vivo, Drosophila
[5] = test system: Canton S (CS) control larvae
wild-type larvae = test: Titration of 4-AP in larval media for tolerability
MS patients = details: cited from earlier work
[6] = test system: smn^x7/smn^x7 mutant larvae; test: Muscle area measurement, smn mutant larvae cultured on 4-AP
tetrodotoxin toxicity = details: in vivo; cited from earlier work
[7] = test system: canine hereditary motor neuron disease; details: canine hereditary motor neuron disease (Pinter et al., 1997); cited from earlier work
[8] = test system: Canton S (CS) control larvae; remark: listed apart in the source
[9] = test system: other sodium, calcium, and potassium conductances; details: at concentration of 1 mM; cited from earlier work
[10] = test system: Canton S (CS) control larvae; remark: listed apart in the source
[11] = smn^x7/smn^x7 larvae treated with 2 mM 4-AP, ± SEM
[12] = smn mutants, 2 mM 4-AP, compared with 4-AP treated controls
[13] = CS control larvae treated with 2 mM 4-AP, ± SEM
[14] = control animals, 2 mM 4-AP, P<0.01

Question: Which “effect on Drosophila smn mutant phenotypes” value (Drosophila smn mutants) does the source give for `CN(C)c1ccncc1` [4-(dimethylamino) pyridine] here?
Answer: Its value is “rescued”.

Question: Which “remaining increase in inter-spike interval above controls treated with 4-AP” value ([1]; smn mutants grown on 2 mM 4-AP media, p<0.001) does the source give for `Nc1ccncc1` [4-AP, 4-aminopyridine] here?
Answer: The value was 31%.

Question: And the “effect on defects in motor rhythm” value ([1]; smn mutants, 2 mM 4-AP)?
Answer: The value was “substantially improved; also recorded: substantially corrects; also recorded: fully corrected”.

Question: And the Inter-spike interval [1, 11]?
Answer: Its Inter-spike interval is 89.98 ± 4.98 ms.

Question: And the “Muscle 6 area” value ([2]; CS control larvae treated with 2 mM 4-AP throughout larval period, ± SEM)?
Answer: The value was 38.08 ± 3.49 ×10^3 × μm^2.

Question: And the “effect on muscle size” value ([2]; control / wild-type animals, 2 mM 4-AP)?
Answer: The value was “no effect; also recorded: does not alter; also recorded: did not affect”.

Question: What about the “reduction of increased NMJ EPSP amplitude” value ([3]; smn mutants treated with 2 mM 4-AP, P<0.001) of the same compound?
Answer: The value was 27%.

Question: And the “effect on NMJ neurotransmitter release / eEPSP amplitude” value [3, 12]?
Answer: Its value is “corrects; also recorded: fully corrected”.

Question: What about the eEPSP amplitude [3, 11] of the same compound?
Answer: The eEPSP amplitude was 32.40 ± 2.48 mV.

Question: What about the “inhibition of Shaker channels” value (Shaker channels) of the same compound?
Answer: Its value is “selectively and reversibly inhibits”.

Question: And the increase of locomotion ([4]; smn mutants grown on 2 mM 4-AP media, P<0.05)?
Answer: Its increase of locomotion is 55%.

Question: What about the “effect on locomotion” value [4, 12] of the same compound?
Answer: The value was “corrects; also recorded: significantly increased”.

Question: And the Locomotion [4, 11]?
Answer: Its Locomotion is 2.65 ± 0.10 cm/min.

Question: And the Locomotion [5, 13]?
Answer: Its Locomotion is 3.06 ± 0.40 cm/min.

Question: What about the “reduction of larval locomotion” value [5, 14] of the same compound?
Answer: The value was 35%.

Question: And the “maximum dosage tolerated without lethality” value (wild-type larvae; added to larval media, wild-type larvae)?
Answer: Its value is 2 mM.

Question: And the “toxicity at maximum tolerated dose” value (wild-type larvae; control animals, 2 mM throughout larval period)?
Answer: The value was “mild systemic toxicity”.

Question: And the “patients with clinically important motor and visual improvements” value (MS patients; 17 temperature-sensitive MS patients, 7.5 to 52.5 mg in one to three daily doses, 1 to 5 days, thirteen of 17)?
Answer: The value was 76%.

Question: And the “side effects” value (MS patients; 17 temperature-sensitive MS patients, 7.5 to 52.5 mg)?
Answer: Its value is “No serious side effects”.

Question: And the “mean duration of improvements for two consecutive doses” value (MS patients; average 8.53-hour treatment-observation period)?
Answer: The value was 7.07 h.

Question: What about the “initial responders with long-term benefits” value (MS patients; long-term study (32 months)) of the same compound?
Answer: Its value is 80-90%.

Question: And the “duration of improvements as share of treatment-observation period” value (MS patients; two consecutive doses, average 8.53-hour period)?
Answer: Its value is 83%.

Question: And the “increase of muscle surface area compared to untreated smn mutants” value ([6]; smn mutants grown on 2 mM 4-AP media, P<0.001)?
Answer: The value was 66%.

Question: What about the “effect on muscle size” value ([6]; smn mutants, 2 mM 4-AP) of the same compound?
Answer: Its value is “increases; also recorded: significantly increased”.

Question: And the “Muscle 6 area” value ([6]; smn^x7/smn^x7 larvae treated with 2 mM 4-AP throughout larval period, ± SEM)?
Answer: The value was 29.60 ± 3.09 ×10^3 × μm^2.

Question: What about the “effect on tetrodotoxin toxicity” value (tetrodotoxin toxicity) of the same compound?
Answer: The value was “reverse tetrodotoxin toxicity”.

Question: What about the “effect on muscle twitch tension” value [7] of the same compound?
Answer: Its value is “can improve”.

Question: And the eEPSP amplitude [8, 13]?
Answer: Its eEPSP amplitude is 26.67 ± 2.91 mV.

Question: And the “reduction of NMJ eEPSP amplitudes” value ([8]; control animals, 2 mM 4-AP, P<0.001)?
Answer: Its value is 21%.

Question: What about the “effect on other sodium, calcium, and potassium conductances” value [9] of the same compound?
Answer: Its value is “without significant effect”.

Question: And the “effect on Drosophila smn mutant phenotypes” value (Drosophila smn mutants)?
Answer: Its value is “positively benefitted; also recorded: rescued”.

Question: What about the Inter-spike interval [10, 13] of the same compound?
Answer: The Inter-spike interval was 68.89 ± 4.23 ms.

Question: And the “effect on motor rhythm” value ([10]; control animals, 2 mM 4-AP)?
Answer: The value was “inhibits”.

Question: What about the “decrease of rhythmic motor activity” value [10, 14] of the same compound?
Answer: The value was 40%.

Reference: US20150064234A1, “4-AMINOPYRIDINE AS A THERAPEUTIC AGENT FOR SPINAL MUSCULAR ATROPHY” (THE TRUSTEES OF COLUMBIA UNIVERSITY IN THE CITY OF NEW YORK, priority 2012, published 2015)
